# In patent US20100179225A1, “POI Prevention” (CYTOKINE PHARMASCIENCES, INC., priority 2008, published 2010):
# What was measured:
# [1] = system: JNK/SAPK; test: JNK/SAPK phosphorylation in ME lysates after intestinal manipulation (immunoblot); format: in vivo, C57BL/6J mice; conditions: 5 mg/kg i.v. preoperative; after IM
# Source text: (§1) The small bowel of the animals was subjected to a standardized, surgical manipulation (IM) as described previously (Kalff J C, Schraut W H, Simmons R L et al. Surgical manipulation of the gut elicits an intestinal muscularis inflammatory response resulting in postsurgical ileus. Ann Surg 1998; 228:652-663; Wehner S, Schwarz N T, Hundsdoerfer R et al. Induction of IL-6 within the rodent intestinal muscularis after intestinal surgical stress. Surgery 2005; 137:436-446). In brief, after anesthesia a midline abdominal incision was made into the peritoneal cavity. The entire small bowel was eventuated and manipulated with standardized moderate intensity using two moist cotton applicators as described previously. After IM, the laparotomy was closed by one layer of continuous suture, except when probe sampling was conducted within 20 minutes after surgery. […]
# p38-MAPK and JNK/SAPK phosphorylation were analyzed in C57BL/6J mice 15, 30 and 60 minutes after IM and in unoperated controls. […] Finally, the sonicated samples were centrifuged at 13.000×g for 10 minutes, and total protein concentration was determined with Pierce BCA protein assay (Perbio, Bonn, Germany). […]
# After PAGE, proteins were blotted on Immobilon-P […] PVDF membranes. […] Chemiluminscence signals were detected with a LAS 4000 system (Fujifilm, Duesseldorf, Germany).
# [2] = system: MIP-1α mRNA; test: Proinflammatory gene expression in ME, real-time RT-PCR: MIP-1α; format: in vivo, mice; conditions: 5 mg/kg i.v. preoperative, vs placebo IM
# Source text: as §1, with “cavity.” for “cavity. The entire small bowel was eventuated and manipulated with standardized moderate intensity using two moist cotton applicators as described previously. After IM, the laparotomy was closed by one layer of continuous suture, except when probe sampling was conducted within 20 minutes after surgery.”
# (§2) Proinflammatory gene expression was analyzed in placebo and CNI-1493 (5 mg/kg) treated animals at 1, 3, 6 and 24 hours after operation; n=5-7 each group. […] Total RNA was analyzed in ME specimen that was prepared as described before (Wehner S, Behrendt F F, Lyutenski B N et al. Inhibition of macrophage function prevents intestinal inflammation and postoperative ileus in rodents. Gut 2007; 56:176-185). […] Expression of mRNA was quantified in triplicate by a RT-PCR with gene expression assays for […] (MCP-1; #Mm00441242_m1), CCL3 (MIP-1α #Mm00441258_m1), IL-6 (Assay ID #Mm00446190_ml), TNF-α (#Mm00443258_m1) and ICAM-1 (#Mm00516023_m1). […] Data quantification was performed by the ΔΔCT method. […]
# [3] = system: IL-6 mRNA; test: Proinflammatory gene expression in ME, real-time RT-PCR: IL-6; format: in vivo, mice; conditions: 5 mg/kg i.v. preoperative; 6 hours after IM; vs placebo IM
# Source text: as §1, with “cavity.” for “cavity. The entire small bowel was eventuated and manipulated with standardized moderate intensity using two moist cotton applicators as described previously. After IM, the laparotomy was closed by one layer of continuous suture, except when probe sampling was conducted within 20 minutes after surgery.”
# as §2
compound,measurement,setting,value
C/C(=N\N=C(N)N)c1cc(NC(=O)CCCCCCCCC(=O)Nc2cc(/C(C)=N/N=C(N)N)cc(/C(C)=N/N=C(N)N)c2)cc(/C(C)=N/N=C(N)N)c1.Cl.Cl.Cl.Cl [CNI-1493],JNK/SAPK phosphorylation,[1],not affected
same,reduction of MIP-1α expression,[2]; 3 hours after IM,50%
same,reduction of MIP-1α expression,[2]; 6 hours after IM,39%
same,IL-6 expression diminished,[3],more than 55%
